Test [1] can be described thus: DPPH free radical scavenging activity. In kind it is biochemical. Conditions: 0.1 mM DPPH, 30 min at 37° C., absorbance 492 nm; for IC50: compounds. On the procedure: Each sample (10 μL) was incubated with 0.1 mM DPPH solution (180 μL, in 99.5% ethanol), and vigorously agitated for 10 sec using a vortex mixer, followed by incubation for 30 min at 37° C. Afterwards, the absorbance was measured at 492 nm using an ELISA reader (TECAN, Sazburg, Austria). L-ascorbic acid as positive control drug was prepared and measured according to the method as described above. To determine anti-oxidative activity of each sample, anti-oxidative potential was represented as reducing power by EDA % (Electron donating ability) for DPPH. […] DPPH method is a representative measuring anti-oxidative activity (81). DPPH contains stable radical in normal condition, but its radical was removed where it contacts with a substance having anti-oxidative activity. Therefore, anti-oxidative effects could be assessed by measuring the absorbance changes of DPPH. In this regard, DPPH as a relatively stable free radical in dark-purple state was reduced by amino acids containing sulfur atom such as cystin and glutathione, L-ascorbic acid, BHA or BHT. These color changes have been used to isolate an anti-oxidative substance from a variety of natural materials (82).
A general note: The DPPH test is a chemical assay of radical scavenging.

For test [2], the system named is S. aureus ATCC 33591 (MRSA). As to the kind of experiment: MIC by liquid media dilution assay. In kind it is cell-based. Conditions: Staphylococcus aureus, 24 hrs at 37° C., naked-eye observation, read-out: MIC (minimum inhibitory concentration). On the procedure: (§1) S.aureus MSSA ATCC 25923 and MRSA 33591 standard strains were purchased from Korean Culture Center of Microorganisms (KCCM), and two S. aureus clinical isolates were obtained from subjects of WonKwang University Hospital (Iksan, Jeonbuk, South Korea). Mueller Hinton Agar (MHA, Difco, USA) or Mueller Hinton Broth (MHB, Difco, USA) was used as subculture media.
(§2) Minimum Inhibitory Concentration (MIC) was carried out according to the standard of Clinical and Laboratory Standards Institute (CLSI). One strain of MRSA (Methicillin resistant staphylococcus aureus), one strain of MSSA (Methicillin susceptible staphylococcus aureus, MSSA), and two strains of MRSAs as clinical isolates obtained from plastic surgery subjects of WonKwang University Hospital, were suspended in Muller-Hinton Broth. Thereafter, the bacterial solutions were adjusted to the turbidity of 0.5 Mcfarland standard. The bacteria were prepared at a concentration of about 1×10^8 CFU/ml, followed by performing anti-bacterial experiment using a liquid media dilution assay.
(§3) The extract from a bark of Alnus pendula was serially diluted from minimal concentration (0.97 μg/ml) to maximal concentration (2 mg/ml) using DMSO (Dimethylsulfoxide) as a solvent, and then were seeded into each well of 96-well plate with a volume of 10 μl/well, followed by adding 100 μl bacterial solution and 90 μl media. After culturing the mixture for 24 hrs at 37° C. in incubator, MIC was defined as minimal concentration in which the growth of bacteria is inhibited in a naked-eye observation.

In the next test the test system is DPS-1 (MRSA). The test is described as follows: MIC by liquid media dilution assay. In kind it is cell-based. Conditions: Staphylococcus aureus; DPS-1 (MRSA) clinical isolate; 24 hrs at 37° C., naked-eye observation; read-out: MIC (minimum inhibitory concentration). On the procedure: as §1, §2, §3
A further test deals with DPS-2 (MRSA). As to the kind of experiment: MIC by liquid media dilution assay. Conditions: Staphylococcus aureus; DPS-2 (MRSA) clinical isolate; 24 hrs at 37° C., naked-eye observation; read-out: MIC (minimum inhibitory concentration). Type of test: cell-based. On the procedure: as §1, §2, §3
Test [3] deals with S. aureus ATCC 25923 (MSSA). As to the kind of experiment: MIC by liquid media dilution assay. Type of test: cell-based. Conditions: Staphylococcus aureus, 24 hrs at 37° C., naked-eye observation, read-out: MIC (minimum inhibitory concentration). On the procedure:
as §1, §2, §3

Molecules are shown by their SMILES. In brackets after ≈: the same amount, converted by molar mass.

The values that follow come from US8399033B2, “Anti-bacterial composition comprising extract from barks of Alnus pendula Matsum” (Chung-Ang University Industry Academic Cooperation …, priority 2009, dated 2013).

With `O=C1O[C@H]([C@@H](O)CO)C(O)=C1O` [Vit. C, L-ascorbic acid], in test [1], the IC50 was 16.4 ± 0.21 µM. The “IC50 value DPPH radical scavenging activity” value in test [1] (extract and fractions) worked out at 5.29 ± 0.05 µg/mL (≈ 30 µM).

With `O=C(/C=C/CCc1ccc(O)c(O)c1)CCc1ccc(O)c(O)c1` [compound 2, 1,7-bis-(3,4-dihydroxyphenyl)-4-heptene-3-one], the MIC came to 62.5 µg/mL (≈ 190 µM) in test [2], 125 µg/mL (≈ 381 µM) with DPS-1 (MRSA), 62.5 µg/mL (≈ 190 µM) in the test on DPS-2 (MRSA) and 62.5 µg/mL (≈ 190 µM) in test [3]. Moreover, the IC50 in test [1] turned out to be 22.5 ± 0.71 µM.

The IC50 is the midpoint of a concentration-inhibition curve. Low values mean greater potency in that assay, high ones weaker potency in that assay.
